Experimental data: US9963462B2 (priority 2015, dated 2018)

These compounds were tested on BH4 levels in SK-N-BE (2) cells (assay: SKN-N-BE (2) cellular assay, BH4 levels by LC-MS). Details: Homo sapiens, SKNBE2, read-out: SK-N-BE(2) IC50, SK-N-BE (2) cells, BH4 levels by LC-MS.
Assay type: cell-based
Protocol: SKN-N-BE(2) Cellular Assay: SK-N-BE (2) cells were seeded in sterile, 96-well plates and incubated for 12-24 hours at 37° C. with 5% CO2 supply. Media was removed and fresh DMEM/F-12 media (containing Glutamine & Pen/Strep but no FBS) was added. Compounds (at different concentrations) were added to different wells. The plates were then incubated for 6-48 hours at 37° C. with 5% CO2 supply. Plates were then centrifuged and the supernatant was removed. The plates were then optionally washed once with PBS. They were then sealed and stored at −80° C. or immediately used. The cells were lysed and the level of BH4 was assessed by LC-MS.
Compounds were assayed for SPR inhibitory activity using a SKN-N-BE (2) cellular assay according to the following procedure. SK-N-BE (2) cells were seeded in sterile, 96-well plates and incubated for 12-24 hours at 37° C. with 5% CO2 supply. Media was removed and fresh DMEM/F-12 media (containing Glutamine & Pen/Strep but no FBS) was added. Compounds (at different concentrations) were added to different wells. The plates were then incubated for 6-48 hours at 37° C. with 5% CO2 supply. Plates were then centrifuged and the supernatant was removed. The plates were then optionally washed once with PBS. They were then sealed and stored at −80° C. or immediately used in the next step. The cells were lysed and the levels of BH4 were assessed by LC-MS.

SMILES | IC50
Cc1c(C(=O)N2CCn3c(nnc3C3CC3)C2)cnn1-c1nn2cccc2c(=O)[nH]1 [Q-0868] | 10000 nM
Cc1c(C(=O)N2C3CCC2CN(c2ccc(C#N)cc2)C3)cnn1-c1nn2cccc2c(=O)[nH]1 [Q-0869] | 100 nM
Cc1c(C(=O)N2C3CCC2CN(c2ccc(C(F)(F)F)cc2)C3)cnn1-c1nn2cccc2c(=O)[nH]1 [Q-0870] | 300 nM
Cc1c(C(=O)N2CCn3cc(C(F)(F)F)nc3C2)cnn1-c1nn2cccc2c(=O)[nH]1 [Q-0871] | 4000 nM
Cc1c(C(=O)N2CCN3C(=O)CC[C@H]3C2)cnn1-c1nn2cccc2c(=O)[nH]1 [Q-0872] | 10000 nM
Cc1c(C(=O)N2CCn3cncc3C2)cnn1-c1nn2cccc2c(=O)[nH]1 [Q-0873] | 10000 nM
Cc1c(C(=O)N2CC3CC(C#N)CC3C2)cnn1-c1nn2cccc2c(=O)[nH]1 (stereo not shown) [Q-0874] | 1100 nM
Cc1c(C(=O)N2C3CCC2CN(c2ccccc2)C3)cnn1-c1nn2cccc2c(=O)[nH]1 [Q-0875] | 76 nM
Cc1c(C(=O)N2C3CCC2CN(c2cccc(F)c2)C3)cnn1-c1nn2cccc2c(=O)[nH]1 [Q-0876] | 88 nM
Cc1c(C(=O)N2C3CCC2CN(c2ccc(C#N)cn2)C3)cnn1-c1nn2cccc2c(=O)[nH]1 [Q-0877] | 200 nM
Cc1c(C(=O)N2CC3CCN(C(=O)OC(C)(C)C)C3C2)cnn1-c1nn2cccc2c(=O)[nH]1 (stereo not shown) [Q-0878] | 800 nM
Cc1c(C(=O)N2CC3CC(C(N)=O)CC3C2)cnn1-c1nn2cccc2c(=O)[nH]1 (stereo not shown) [Q-0879] | 10000 nM
Cc1c(C(=O)N2C3CCC2CN(c2ccc(F)cc2)C3)cnn1-c1nn2cccc2c(=O)[nH]1 [Q-0880] | 87 nM
Cc1c(C(=O)N2CCN3CCC[C@@]3(C)C2)cnn1-c1nn2cccc2c(=O)[nH]1 [Q-0881] | 2300 nM
Cc1c(C(=O)N2C3CCC2CN(c2ccccn2)C3)cnn1-c1nn2cccc2c(=O)[nH]1 [Q-0882] | 200 nM
Cc1c(C(=O)N2CCC(C#N)CC2)cnn1-c1nn2cccc2c(=O)[nH]1 [Q-0883] | 1300 nM
CCN1CC2CCC(C1)N2C(=O)c1cnn(-c2nn3cccc3c(=O)[nH]2)c1C [Q-0884] | 200 nM
Cc1c(C(=O)N2CCN(C(=O)OC(C)(C)C)CC2C)cnn1-c1nn2cccc2c(=O)[nH]1 (stereo not shown) [Q-0885] | 400 nM
Cc1c(C(=O)N2CCC(N3CCCC3)CC2)cnn1-c1nn2cccc2c(=O)[nH]1 [Q-0886] | 5400 nM
Cc1c(C(=O)N2CCC(OCc3ccc(F)cc3)CC2)cnn1-c1nn2cccc2c(=O)[nH]1 [Q-0893] | 300 nM
Cc1c(C(=O)N2C3CCC2CN(c2ccc(Cl)cc2)C3)cnn1-c1nn2cccc2c(=O)[nH]1 [Q-0894] | 100 nM
Cc1c(C(=O)N2CCN(CCC#N)CC2)cnn1-c1nn2cccc2c(=O)[nH]1 [Q-0895] | 1400 nM
Cc1c(C(=O)N2CC[C@@H]3CN(C(=O)OC(C)(C)C)C[C@@H]32)cnn1-c1nn2cccc2c(=O)[nH]1 [Q-0897] | 500 nM
Cc1c(C(=O)N2CCC23CC(F)(F)C3)cnn1-c1nn2cccc2c(=O)[nH]1 [Q-0900] | 2300 nM
Cc1c(C(=O)N2CCN(CCS(C)(=O)=O)CC2)cnn1-c1nn2cccc2c(=O)[nH]1 [Q-0901] | 10000 nM
Cc1c(C(=O)N2CC3CC(C(F)(F)F)CC3C2)cnn1-c1nn2cccc2c(=O)[nH]1 (stereo not shown) [Q-0902] | 100 nM
Cc1c(C(=O)N2CCC3(CC2)CC3c2nnc(-c3cccc(F)c3)o2)cnn1-c1nn2cccc2c(=O)[nH]1 (stereo not shown) [Q-0905] | 600 nM

SMILES | IC50
Cc1c(C(=O)N2CCN(c3nccs3)CC2)cnn1-c1nn2cccc2c(=O)[nH]1 [Q-0907] | 400 nM
Cc1c(C(=O)N2CCC3(CC2)OCc2ccccc23)cnn1-c1nn2cccc2c(=O)[nH]1 [Q-0909] | 100 nM
Cc1c(C(=O)N2CCCC3C2CCCN3C(=O)OC(C)(C)C)cnn1-c1nn2cccc2c(=O)[nH]1 (stereo not shown) [Q-0912] | 900 nM
Cc1c(C(=O)N2CCC3CN(C(=O)OC(C)(C)C)CC32)cnn1-c1nn2cccc2c(=O)[nH]1 (stereo not shown) [Q-0914] | 600 nM
Cc1c(C(=O)N2CCN(C(=O)OC(C)(C)C)CC2(C)C)cnn1-c1nn2cccc2c(=O)[nH]1 [Q-0916] | 700 nM
Cc1c(C(=O)N2CCC(n3cncn3)CC2)cnn1-c1nn2cccc2c(=O)[nH]1 [Q-0919] | 1700 nM
Cc1c(C(=O)N2CCCCC2C(F)(F)F)cnn1-c1nn2cccc2c(=O)[nH]1 (stereo not shown) [Q-0920] | 500 nM
Cc1c(C(=O)N2CCC3(CCOC3)C2)cnn1-c1nn2cccc2c(=O)[nH]1 (stereo not shown) [Q-0922] | 1000 nM
Cc1c(C(=O)N2CCCC(C)(C#N)C2)cnn1-c1nn2cccc2c(=O)[nH]1 (stereo not shown) [Q-0923] | 1300 nM
CCN(C)C1CCN(C(=O)c2cnn(-c3nn4cccc4c(=O)[nH]3)c2C)CC1 [Q-0925] | 500 nM
Cc1c(C(=O)N2CC3(CCN(C(=O)OC(C)(C)C)CC3)C2)cnn1-c1nc2c(c(=O)[nH]1)CCC2 [Q-0928] | 200 nM
Cc1c(C(=O)N2CC[C@H]3CN(C(=O)OC(C)(C)C)[C@H]3C2)cnn1-c1nn2cccc2c(=O)[nH]1 [Q-0929] | 2000 nM
Cc1c(C(=O)N2CC3(CCCC3)C2)cnn1-c1nc2c(c(=O)[nH]1)CCC2 [Q-0931] | 200 nM
Cc1c(C(=O)N2CCC3(CC2)CC3c2noc(-c3cccnc3)n2)cnn1-c1nn2cccc2c(=O)[nH]1 (stereo not shown) [Q-0932] | 700 nM
Cc1c(C(=O)N2CCN(C3CC4CCC3C4)CC2)cnn1-c1nn2cccc2c(=O)[nH]1 (stereo not shown) [Q-0933] | 200 nM
Cc1c(C(=O)N2CC3CCCC(C3)C2)cnn1-c1nn2cccc2c(=O)[nH]1 [Q-0934] | 300 nM
Cc1c(C(=O)N2CCC(N3CCCC3=O)CC2)cnn1-c1nn2cccc2c(=O)[nH]1 [Q-0935] | 1600 nM
Cc1c(C(=O)N2CCN(c3nc4ccccc4s3)CC2)cnn1-c1nn2cccc2c(=O)[nH]1 [Q-0936] | 200 nM
COC1(C2CC2)CCN(C(=O)c2cnn(-c3nn4cccc4c(=O)[nH]3)c2C)CC1 [Q-0938] | 100 nM
Cc1c(C(=O)N2CCC(c3nc(-c4ccccc4)cs3)CC2)cnn1-c1nn2cccc2c(=O)[nH]1 [Q-0939] | 83 nM
Cc1c(C(=O)N2CC(Cc3ccc(C(F)(F)F)cc3)C2)cnn1-c1nn2cccc2c(=O)[nH]1 [Q-0940] | 800 nM
Cc1c(C(=O)N2CCC(n3ccnc3)CC2)cnn1-c1nn2cccc2c(=O)[nH]1 [Q-0942] | 9100 nM
Cc1c(C(=O)N2CC3(CN(CC(F)F)C3)C2)cnn1-c1nn2cccc2c(=O)[nH]1 [Q-0945] | 1000 nM
Cc1c(C(=O)N2CC3CC(C)N(C(=O)C(C)(C)C)C3C2)cnn1-c1nn2cccc2c(=O)[nH]1 (stereo not shown) [Q-0946] | 1100 nM
Cc1c(C(=O)N2CC(CC(F)(F)F)C2)cnn1-c1nn2cccc2c(=O)[nH]1 [Q-0947] | 1000 nM
Cc1c(C(=O)N2CCN(CC(F)(F)F)CC2(C)C)cnn1-c1nn2cccc2c(=O)[nH]1 [Q-0949, 2-(4-(2,2-dimethyl-4-(2,2,2-trifluoroethyl)piperazine-1-carbonyl)-5-methyl-1H-pyrazol-1-yl)pyrrolo[1,2-f][1,2,4]triazin-4(3H)-one] | 200 nM
Cc1c(C(=O)N2CCC(N3CCOCC3)C2)cnn1-c1nn2cccc2c(=O)[nH]1 (stereo not shown) [Q-0950] | 6200 nM

SMILES | IC50
Cc1c(C(=O)N2CCC3CCC(=O)N(C4CC4)C3C2)cnn1-c1nn2cccc2c(=O)[nH]1 (stereo not shown) [Q-0954] | 9000 nM
Cc1c(C(=O)N2CCCC(c3n[nH]c(C4CC4)n3)C2)cnn1-c1nn2cccc2c(=O)[nH]1 (stereo not shown) [Q-0955] | 10000 nM
COCC1(C#N)CCN(C(=O)c2cnn(-c3nn4cccc4c(=O)[nH]3)c2C)CC1 [Q-0957] | 1000 nM
Cc1c(C(=O)N2CCC(c3nncn3C3CC3)CC2)cnn1-c1nn2cccc2c(=O)[nH]1 [Q-0958] | 10000 nM
Cc1c(C(=O)N2CCC(C(F)(F)F)C2(C)C)cnn1-c1nn2cccc2c(=O)[nH]1 (stereo not shown) [Q-0959] | 1000 nM
Cc1c(C(=O)N2CCC(C(F)(F)F)C3(CCC3)C2)cnn1-c1nn2cccc2c(=O)[nH]1 (stereo not shown) [Q-0960] | 200 nM
Cc1c(C(=O)N2C[C@@H]3[C@@H](CF)[C@@H]3C2)cnn1-c1nn2cccc2c(=O)[nH]1 [Q-0961] | 700 nM
Cc1c(C(=O)N2CCC(F)(c3ccccn3)CC2)cnn1-c1nn2cccc2c(=O)[nH]1 [Q-0962] | 300 nM
Cc1c(C(=O)N2CCN(C(C#N)c3ccc(F)cc3)CC2)cnn1-c1nn2cccc2c(=O)[nH]1 (stereo not shown) [Q-0963] | 4000 nM
Cc1c(C(=O)N2CCN(C(C#N)c3cccs3)CC2)cnn1-c1nn2cccc2c(=O)[nH]1 (stereo not shown) [Q-0964] | 8900 nM
Cc1c(C(=O)N2CC3CCC2c2ccccc23)cnn1-c1nn2cccc2c(=O)[nH]1 (stereo not shown) [Q-0965] | 100 nM
Cc1c(C(=O)N2CCC(CC(F)(F)F)C2)cnn1-c1nn2cccc2c(=O)[nH]1 (stereo not shown) [Q-0966] | 1300 nM
Cc1c(C(=O)N2CC(C(F)(F)F)CC(C(F)(F)F)C2)cnn1-c1nn2cccc2c(=O)[nH]1 (stereo not shown) [Q-0967] | 1900 nM
Cc1c(C(=O)N2[C@H](C)CN(C(=O)OC(C)(C)C)C[C@@H]2C)cnn1-c1nn2cccc2c(=O)[nH]1 [Q-0968] | 400 nM
Cc1c(C(=O)N2C3CCC2CC(N(C)C(=O)c2ccccc2)C3)cnn1-c1nn2cccc2c(=O)[nH]1 (stereo not shown) [Q-0970] | 400 nM
Cc1c(C(=O)N2C[C@@H]3CCS(=O)(=O)[C@@H]3C2)cnn1-c1nn2cccc2c(=O)[nH]1 [Q-0971] | 7200 nM
Cc1ccc(OC2CC3CCC(C2)N3C(=O)c2cnn(-c3nn4cccc4c(=O)[nH]3)c2C)cc1 (stereo not shown) [Q-0974] | 100 nM
Cc1c(C(=O)N2CCN(c3nnc(C(F)(F)F)s3)CC2)cnn1-c1nn2cccc2c(=O)[nH]1 [Q-0975] | 1300 nM
COC1CCN(C(=O)c2cnn(-c3nn4cccc4c(=O)[nH]3)c2C)CC1 [Q-0976] | 1100 nM
Cc1c(C(=O)N2CC(OCC(F)F)C2)cnn1-c1nn2cccc2c(=O)[nH]1 [Q-0979] | 1400 nM
Cc1c(C(=O)N2CCN(CC(F)(F)F)C(=O)C2)cnn1-c1nn2cccc2c(=O)[nH]1 [Q-0980] | 1300 nM
Cc1c(C(=O)N2CC(N3CC(F)C3)C2)cnn1-c1nn2cccc2c(=O)[nH]1 [Q-0981] | 1400 nM
Cc1c(C(=O)N2CCN(C(C#N)C(C)C)CC2)cnn1-c1nn2cccc2c(=O)[nH]1 (stereo not shown) [Q-0982] | 10000 nM
Cc1c(C(=O)N2CCC(c3nnc4n3CCC4)CC2)cnn1-c1nn2cccc2c(=O)[nH]1 [Q-0983] | 10000 nM
Cc1c(C(=O)N2CCC(n3nccc3C(F)(F)F)CC2)cnn1-c1nn2cccc2c(=O)[nH]1 [Q-0984] | 400 nM
